Data published in paper PMC11748363, “Antimicrobial and Antiproliferative Properties of 2‐Phenyl‐N‐(Pyridin‐2‐yl)acetamides” (Chemical Biology & Drug Design, 2025).
Values after ≈ are worked out from the molar mass of the structure shown. Like-named read-outs stand apart in the source and are kept apart here.

Key:
[1] = system: Mycobacterium tuberculosis H37Ra; design: method as in Nawrot et al. 2021; settings: previously published N‐pyridinyl benzamides; ref Nawrot et al. 2021; cited from earlier work
[2] = system: Mycobacterium tuberculosis H37Ra; assay: Antimycobacterial microdilution broth MIC (resazurin), Mtb H37Ra; assay type: cell-based; settings: for MIC: Mycobacterium tuberculosis, H37RA, read-out: MIC Mtb H37Ra; for SI (selectivity index): SI = HepG2 IC50 (μM)/MIC MtbH37Ra (μM), calculated for compounds with MIC ≤ 31.25 μg/mL
[3] = system: Mycolicibacterium smegmatis DSM 43465; assay: Antimycobacterial microdilution broth MIC (resazurin), M. smegmatis; assay type: cell-based; settings: DSM43465, read-out: MIC M. smegmatis
[4] = system: Mycolicibacterium aurum DSM 43999; assay: Antimycobacterial microdilution broth MIC (resazurin), M. aurum; assay type: cell-based; settings: DSM43999, read-out: MIC M. aurum
[5] = system: Mycobacterium tuberculosis H37Rv; assay: Microplate Alamar Blue Assay MIC, Mtb H37Rv; assay type: cell-based; settings: Mycobacterium tuberculosis, H37RV
[6] = system: M. kansasii CNCTC My 235/80; assay: Microplate Alamar Blue Assay MIC, M. kansasii; assay type: cell-based
[7] = system: M. avium ssp. avium CNCTC My 80/72; assay: Microplate Alamar Blue Assay MIC, M. avium; assay type: cell-based
HepG2 cell line = assay: Cytotoxicity CellTiter 96, HepG2; assay type: cell-based, human; settings: Homo sapiens, HepG2, 24 h, 24 h incubation; ^c compound precipitated in the testing medium; ^d over the limit of tested concentrations
[8] = system: Staphylococcus aureus CCM 4223, ATCC 29213; assay: Antibacterial microdilution broth MIC, SA; assay type: cell-based; settings: for MIC: Staphylococcus aureus
[9] = system: Staphylococcus aureus subsp. aureus CCM 4750, ATCC 43300 (MRSA); assay: Antibacterial microdilution broth MIC, MRSA; assay type: cell-based; settings: for MIC: Staphylococcus aureus
[10] = system: Staphylococcus epidermidis CCM 4418, ATCC 12228; assay: Antibacterial microdilution broth MIC, SE; assay type: cell-based
[11] = system: Enterococcus faecalis CCM 4224, ATCC 29212; assay: Antibacterial microdilution broth MIC, EF; assay type: cell-based
[12] = system: Escherichia coli CCM 3954, ATCC 25922; assay: Antibacterial microdilution broth MIC, EC; assay type: cell-based
[13] = system: Acinetobacter baumannii DSM 30007, ATCC 19606; assay: Antibacterial microdilution broth MIC, ACI; assay type: cell-based
[14] = system: Pseudomonas aeruginosa CCM 3955, ATCC 27853; assay: Antibacterial microdilution broth MIC, PA; assay type: cell-based
[15] = system: Candida albicans CCM 8320, ATCC 24433; assay: Antifungal microdilution broth MIC, CA
[16] = system: Candida krusei CCM 8271, ATCC 6258; assay: Antifungal microdilution broth MIC, CK; settings: Pichia kudriavzevii
[17] = system: Candida parapsilosis CCM 8260, ATCC 22019; assay: Antifungal microdilution broth MIC, CP; settings: Lodderomyces parapsilosis
[18] = system: Candida tropicalis CCM 8264, ATCC 750; assay: Antifungal microdilution broth MIC, CT
[19] = system: Aspergillus fumigatus ATCC 204305; assay: Antifungal microdilution broth MIC, AF
[20] = system: Lichtheimia corymbifera CCM 8077; assay: Antifungal microdilution broth MIC, LC
[21] = system: Trichophyton interdigitale CCM 8377, ATCC 9533; assay: Antifungal microdilution broth MIC, TI; settings: for MIC: Trichophyton interdigitale
[22] = system: Aspergillus flavus CCM 8363; assay: Antifungal microdilution broth MIC, AFla
[23] = system: Klebsiella pneumoniae CCM 4415, ATCC 10031; assay: Antibacterial microdilution broth MIC, KP
[24] = ATCC204305, 24 h, read-out: MIC AF 24h
[25] = ATCC204305, 48 h, read-out: MIC AF 48h
[26] = CCM8077, 24 h, read-out: MIC LC 24h
[27] = CCM8077, 48 h, read-out: MIC LC 48h
[28] = CCM8363, 24 h, read-out: MIC AFla 24h
[29] = CCM8363, 48 h, read-out: MIC AFla 48h

## O=C(Nc1cccc(Cl)n1)c1cccc(C(F)(F)F)c1 [C00003 R1=6-Cl,R2=3-CF3]
[1]
  MIC Mtb H37Ra (μg/mL), previously published compounds: 7.81 µg/mL (≈ 26 µM)

## COc1ccccc1C(=O)Nc1ccc(Cl)cn1 [C00003 R1=5-Cl,R2=2-OMe]
[1]
  MIC Mtb H37Ra (μg/mL), previously published compounds: 31.25 µg/mL (≈ 119 µM)

## O=C(Nc1ccccn1)c1cccc(Cl)c1 [C00003 R1=H,R2=3-Cl]
[1]
  MIC Mtb H37Ra (μg/mL), previously published compounds: 62.5 µg/mL (≈ 269 µM)

## COc1cccc(C(=O)Nc2ccccn2)c1 [C00003 R1=H,R2=3-OMe]
[1]
  MIC Mtb H37Ra (μg/mL), previously published compounds: 62.5 µg/mL (≈ 274 µM)

## COc1ccccc1C(=O)Nc1ccccn1 [C00003 R1=H,R2=2-OMe]
[1]
  MIC Mtb H37Ra (μg/mL), previously published compounds: 31.25 µg/mL (≈ 137 µM)

## O=C(Nc1cccc(Cl)n1)c1ccc(Cl)cc1 [C00003 R1=6-Cl,R2=4-Cl]
[1]
  MIC Mtb H37Ra (μg/mL), previously published compounds: > 500 µg/mL

## O=C(Nc1cccc(Cl)n1)c1ccccc1Cl [C00003 R1=6-Cl,R2=2-Cl]
[1]
  MIC Mtb H37Ra (μg/mL), previously published compounds: 62.5 µg/mL (≈ 234 µM)

## COc1cccc(C(=O)Nc2ccc(Cl)cn2)c1 [C00003 R1=5-Cl,R2=3-OMe]
[1]
  MIC Mtb H37Ra (μg/mL), previously published compounds: 62.5 µg/mL (≈ 238 µM)

## O=C(Nc1ccccn1)c1ccccc1Cl [C00003 R1=H,R2=2-Cl]
[1]
  MIC Mtb H37Ra (μg/mL), previously published compounds: > 500 µg/mL

## O=C(Cc1ccc(Cl)cc1)Nc1cccc(Cl)n1 [Compound 21]
[2]; Calculated from MIC (μg/mL)
  MIC: 27.8 µM
[2]
  MIC: 7.81 µg/mL
  SI (selectivity index): 2.9
[3]
  MIC: 15.6 µg/mL (≈ 55.6 µM)
[4]
  MIC: 31.2 µg/mL (≈ 111 µM)
[5]
  MIC: 6.25 µg/mL (≈ 22.2 µM)
[6]
  MIC M. kansasii: additional activity
[6]; Mycobacterium kansasii
  MIC: 25 µg/mL (≈ 88.9 µM)
[7]
  MIC M. avium: additional activity
[7]; Mycobacterium avium
  MIC: 6.25 µg/mL (≈ 22.2 µM)
HepG2 cell line
  IC50: 81.5 µM
[8]; 24 h, read-out: MIC SA 24h
  MIC: 250 µM (≈ 70.3 µg/mL)
[8]; 48 h, read-out: MIC SA 48h
  MIC: > 500 µM
[8]; Table 2
  Antibacterial activity on SA: 250 μM on SA, 250 μM on MRSA
[9]; 24 h, read-out: MIC MRSA 24h
  MIC: 250 µM (≈ 70.3 µg/mL)
[9]; 48 h, read-out: MIC MRSA 48h
  MIC: 500 µM (≈ 141 µg/mL)
[9]; Table 2
  Antibacterial activity on MRSA: 250 μM on SA, 250 μM on MRSA
[10]; 24 h, read-out: MIC SE 24h
  MIC: > 500 µM
[10]; 48 h, read-out: MIC SE 48h
  MIC: > 500 µM
[11]; 24 h, read-out: MIC EF 24h
  MIC: > 500 µM
[11]; 48 h, read-out: MIC EF 48h
  MIC: > 500 µM
[12]; 24 h, read-out: MIC EC 24h
  MIC: > 500 µM
[12]; 48 h, read-out: MIC EC 48h
  MIC: > 500 µM
[13]; 24 h, read-out: MIC ACI 24h
  MIC: > 500 µM
[13]; 48 h, read-out: MIC ACI 48h
  MIC: > 500 µM
[14]; 24 h, read-out: MIC PA 24h
  MIC: > 500 µM
[14]; 48 h, read-out: MIC PA 48h
  MIC: > 500 µM
[15]; 24 h, read-out: MIC CA 24h
  MIC: > 500 µM
[15]; 48 h, read-out: MIC CA 48h
  MIC: > 500 µM
[16]; 24 h, read-out: MIC CK 24h
  MIC: > 500 µM
[16]; 48 h, read-out: MIC CK 48h
  MIC: > 500 µM
[17]; 24 h, read-out: MIC CP 24h
  MIC: > 500 µM
[17]; 48 h, read-out: MIC CP 48h
  MIC: > 500 µM
[18]; 24 h, read-out: MIC CT 24h
  MIC: > 500 µM
[18]; 48 h, read-out: MIC CT 48h
  MIC: > 500 µM
[19]; [24]
  MIC: > 500 µM
[19]; [25]
  MIC: > 500 µM
[20]; [26]
  MIC: > 500 µM
[20]; [27]
  MIC: > 500 µM
[21]; Table 2
  Antifungal activity on TI: 62.5 μM on TI
[21]; 72 h, read-out: MIC TI 72h
  MIC: 62.5 µM (≈ 17.6 µg/mL)
[21]; 120 h, read-out: MIC TI 120h
  MIC: 125 µM (≈ 35.1 µg/mL)
[22]; [28]
  MIC: > 500 µM
[22]; [29]
  MIC: > 500 µM
[23]
  MIC KP 24h: > 500 µmol/L
  MIC KP 48h: > 500 µmol/L

## O=C(Nc1ccc(Cl)cn1)c1cccc(Cl)c1 [C00003 R1=5-Cl,R2=3-Cl]
[1]
  MIC Mtb H37Ra (μg/mL), previously published compounds: 31.25 µg/mL (≈ 117 µM)

## COc1ccc(C(=O)Nc2cccc(Cl)n2)cc1 [C00003 R1=6-Cl,R2=4-OMe]
[1]
  MIC Mtb H37Ra (μg/mL), previously published compounds: 15.625 µg/mL (≈ 59.5 µM)

## O=C(Cc1ccccc1C(F)(F)F)Nc1ccc(Cl)cn1 [Compound 23]
[2]; Calculated from MIC (μg/mL)
  MIC: 99.3 µM
[2]
  MIC: 31.2 µg/mL
  SI (selectivity index): 2.0
[3]
  MIC: > 500 µg/mL
[4]
  MIC: > 500 µg/mL
HepG2 cell line
  IC50: 201 µM
[8]; 24 h, read-out: MIC SA 24h
  MIC: > 500 µM
[8]; 48 h, read-out: MIC SA 48h
  MIC: > 500 µM
[9]; 24 h, read-out: MIC MRSA 24h
  MIC: > 500 µM
[9]; 48 h, read-out: MIC MRSA 48h
  MIC: > 500 µM
[10]; 24 h, read-out: MIC SE 24h
  MIC: > 500 µM
[10]; 48 h, read-out: MIC SE 48h
  MIC: > 500 µM
[11]; 24 h, read-out: MIC EF 24h
  MIC: > 500 µM
[11]; 48 h, read-out: MIC EF 48h
  MIC: > 500 µM
[12]; 24 h, read-out: MIC EC 24h
  MIC: > 500 µM
[12]; 48 h, read-out: MIC EC 48h
  MIC: > 500 µM
[13]; 24 h, read-out: MIC ACI 24h
  MIC: > 500 µM
[13]; 48 h, read-out: MIC ACI 48h
  MIC: > 500 µM
[14]; 24 h, read-out: MIC PA 24h
  MIC: > 500 µM
[14]; 48 h, read-out: MIC PA 48h
  MIC: > 500 µM
[15]; 24 h, read-out: MIC CA 24h
  MIC: > 500 µM
[15]; 48 h, read-out: MIC CA 48h
  MIC: > 500 µM
[16]; 24 h, read-out: MIC CK 24h
  MIC: > 500 µM
[16]; 48 h, read-out: MIC CK 48h
  MIC: > 500 µM
[17]; 24 h, read-out: MIC CP 24h
  MIC: > 500 µM
[17]; 48 h, read-out: MIC CP 48h
  MIC: > 500 µM
[18]; 24 h, read-out: MIC CT 24h
  MIC: > 500 µM
[18]; 48 h, read-out: MIC CT 48h
  MIC: > 500 µM
[19]; [24]
  MIC: > 500 µM
[19]; [25]
  MIC: > 500 µM
[20]; [26]
  MIC: > 500 µM
[20]; [27]
  MIC: > 500 µM
[21]; 72 h, read-out: MIC TI 72h
  MIC: 500 µM (≈ 157 µg/mL)
[21]; 120 h, read-out: MIC TI 120h
  MIC: 500 µM (≈ 157 µg/mL)
[22]; [28]
  MIC: > 500 µM
[22]; [29]
  MIC: > 500 µM
[23]
  MIC KP 24h: > 500 µmol/L
  MIC KP 48h: > 500 µmol/L

## COc1ccc(C(=O)Nc2ccccn2)cc1 [C00003 R1=H,R2=4-OMe]
[1]
  MIC Mtb H37Ra (μg/mL), previously published compounds: 62.5 µg/mL (≈ 274 µM)
